pIC50: −log10 of the molar value. Like-named read-outs stand apart in the source and are kept apart here.
Columns and labels:
KSP = target: T1, KSP (Homo sapiens, UniProt P52732); assay: Kinesin ATPase inhibition (ATP hydrolysis) end-point assay; type: biochemical; conditions: for KSP residual activity: 100 nM stated for ispinesib and (R)-1, concentration not restated for the complexes
T1 construct: purchased Cytoskeleton, Inc
T1 sequence (P52732 1-368 limits assumed): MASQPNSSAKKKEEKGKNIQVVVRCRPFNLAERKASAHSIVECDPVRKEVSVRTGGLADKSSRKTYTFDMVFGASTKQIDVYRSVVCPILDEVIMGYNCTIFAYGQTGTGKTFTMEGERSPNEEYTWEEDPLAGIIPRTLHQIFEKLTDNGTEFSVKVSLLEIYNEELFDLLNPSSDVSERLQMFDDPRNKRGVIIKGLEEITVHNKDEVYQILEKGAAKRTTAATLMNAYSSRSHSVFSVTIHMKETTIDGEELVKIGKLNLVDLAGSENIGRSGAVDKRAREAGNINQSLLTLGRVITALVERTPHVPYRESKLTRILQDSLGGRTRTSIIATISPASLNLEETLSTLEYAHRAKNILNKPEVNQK
Description: The mechanism of the anticancer activity of ispinesib is related to the inhibition of the activity of the KSP. Thus, we studied the synthesized compounds’ ability to inhibit KSP activity using the adenosine 5′-triphosphate (ATP) hydrolysis assay.
The potential kinesin modulatory activity of tested compounds was performed using a Kinesin ATPase end-point biochem kit (Cytoskeleton, Inc.). […] The experiment was performed according to the manufacturer’s instructions. One μg of tested kinesin (KSP) was used per reaction. Phosphate release was measured at the absorbance 650 nm using an EnVision multilabel plate reader (PerkinElmer).

SW620Mito = assay: Neutral red uptake antiproliferative assay, MDR line SW620Mito; type: cell-based, human; conditions: for pIC50: exposure time 72 h, n = 3, ABCG2-overexpressing MDR line; for activity factor IC50(1)/IC50(3a–4d), SW620Mito: vs corresponding amine (R)-1 or (S)-1, 72 h
Source text: Next, we evaluated the cytotoxicity of the synthesized complexes toward the panel of six multidrug-resistant (MDR) cell lines derived from SW620 and characterized by the overexpression of various ABC proteins, namely, ABCG2 (SW620C and SW620Mito), ABCC1 (SW620M and SW620E), and ABCB1 (SW620D, SW620E, and SW620V) (Table 3, Figures S29 and S32). […] The activity of the complexes derived from the ligand (S)-2 is also considerably higher than that of the compounds containing the ligand (R)-2. The cytotoxicity of both rhodium 4c and iridium 4d complexes is higher than that of amine (S)-1. In the case of 4c, the increase in cytotoxicity is low, with the highest value of 3.7-fold for the SW620Mito line. […] Compound 4d also exerts a 2.1- and 2.6-fold higher cytotoxicity than […] against the SW620C and SW620D lines.
For this purpose, neutral red uptake assay was performed. […] The results were presented as a percentage of control.

A549 = assay: Neutral red uptake antiproliferative assay, A549; conditions: for pIC50: read-out: IC50 A549, exposure time 72 h, n = 3, 95% CI given; for activity factor IC50(1)/IC50(3a–4d), A549: vs corresponding amine (R)-1 or (S)-1, 72 h
Source text: To assess the impact of conjugating half-sandwich complexes with amines 1 via an imine-pyridine ligand on biological activity, we examined the antiproliferative potential of (R)- and (S)-1 and organometallic conjugates 3a–d and 4a–d in selected human cancer cell lines: alveolar basal epithelial cell adenocarcinoma (A549), colorectal adenocarcinomas (Colo205 and SW620), colorectal carcinoma (HCT116), hepatocellular carcinoma (HepG2), and breast adenocarcinoma (MCF7). The choice of cell lines was dictated by results of previously published clinical trials on ispinesib.[49],[50]
Cell lines used in this study were purchased from the American Type Culture Collection via LGC Standards. Human normal lung fibroblasts (MRC-5), alveolar basal epithelial cell adenocarcinoma (A549), colorectal adenocarcinoma (Colo205), hepatocellular carcinoma (HepG2), breast adenocarcinoma (MCF7), and colorectal adenocarcinoma (SW620) and its MDR variants[55] were cultured in standard conditions (37 °C, 5% CO2, 100% relative humidity) in high glucose DMEM medium supplemented with GlutaMax, HEPES (ThermoFisher Scientific) and 10% fetal bovine serum (EURx, Poland). All cell lines were tested for Mycoplasma contamination using a MycoProbe mycoplasma detection kit (R&D System).
For this purpose, neutral red uptake assay was performed. 10^4 of cells were seeded per well of a 96-well plate and left overnight to allow cells to attach to the surface. Then, the cells were exposed to a desired concentration of tested compounds. Stock solutions were prepared in DMSO and were used immediately after preparation. The final concentration of DMSO was constant and nontoxic (0.1% v/v). After 70 h of culture, neutral red was added to the final concentration of 1 mM. After 2 h of incubation with the dye, the medium was aspirated and cells were washed with ice-cold PBS. The dye was released using 100 μL of the solubilizer (1% acetic acid in 50% ethanol) on an orbital shaker (10 min). The absorbance at 540 nm was measured using an EnVision multilabel plate reader (PerkinElmer). […] The IC90 and IC50 parameters were calculated using GraphPad Prism v9 software using the five-parameter nonlinear logistic regression model.

SW620 cells = assay: ROS generation, dihydrorhodamine 123 oxidation assay; type: cell-based, human; conditions: SW620, 1 μM compound, 4 h, DHR123 with 10 μM verapamil; vs control or (R)- and (S)-1
Source text: Metal complexes often induce reactive oxygen species (ROS) generation in cells,[51] which may increase their cytotoxic activity compared to purely organic molecules. To study the impact of the synthesized compounds on ROS production, we have measured the ROS generation in SW620 cells by the dihydrorhodamine 123 (DHR123) oxidation assay (Figure 9). However, there is no correlation between the antiproliferative potential and the ability of a compound to generate ROS.
Dihydrorhodamine 123 oxidation was used as an indicator of intracellular ROS production. For this purpose, SW620 cells were seeded in 6-well plates at a density of 10^5 cells per well. The cells were left overnight (time needed for them to attach to the surface). Then, 1 μM tested compounds were added along with 1 μM DHR123. Additionally, since DHR123 is a substrate of ABCB1 (which may interfere in this assay), 10 μM verapamil, an inhibitor of this protein, was added. The cells were cultured for an additional 4 h at 37 °C, and then the cells were harvested by trypsinization, resuspended in a complete medium, and analyzed using a LSRII flow cytometer (Becton Dickinson) in a FITC channel (530/30 nm). The results are presented as a percentage of control (median fluorescence in the presence of DMSO).

SMILES | KSP residual activity (KSP) [%] | pIC50 (SW620Mito) | activity factor IC50(1)/IC50(3a–4d), SW620Mito (SW620Mito) | increased cytotoxicity vs corresponding amine 1, A549 (A549) [fold] | pIC50 (A549) | activity factor IC50(1)/IC50(3a–4d), A549 (A549) | increased cytotoxicity vs corresponding amine 1, A549 (A549; rounded value) [fold] | KSP inhibitory activity (in words) (KSP; 100, 300 and 1000 nM) | ROS generation (in words) (SW620 cells)
CC(C)[C@@H](N=Cc1ccccn1)c1nc2cc(Cl)ccc2c(=O)n1Cc1ccccc1.Cc1ccc(C(C)C)cc1.F[P-](F)(F)(F)(F)F.[Cl-].[Os+2] [Compound 3b, [(cym)Os((R)-2)Cl]PF6] | 71.8 | 6.13 | (0.349) | 2 | 5.98 | (2.12) | – | – | –
CC(C)[C@@H](N=Cc1ccccn1)c1nc2cc(Cl)ccc2c(=O)n1Cc1ccccc1.Cc1c(C)c(C)[c-](C)c1C.F[P-](F)(F)(F)(F)F.[Cl-].[Rh+3] [Compound 3c, [(Cp*)Rh((R)-2)Cl]PF6] | 47.5 | 6.28 | (0.498) | – | 5.94 | (1.90) | 2 | – | –
CC(C)[C@@H](N=Cc1ccccn1)c1nc2cc(Cl)ccc2c(=O)n1Cc1ccccc1.Cc1ccc(C(C)C)cc1.F[P-](F)(F)(F)(F)F.[Cl-].[Ru+2] [Compound 3a, [(cym)Ru((R)-2)Cl]PF6] | – | 5.36 | (0.060) | – | 5.61 | (0.902) | – | nonactive | increase the level of ROS
CC(C)[C@@H](N=Cc1ccccn1)c1nc2cc(Cl)ccc2c(=O)n1Cc1ccccc1.Cc1c(C)c(C)[c-](C)c1C.F[P-](F)(F)(F)(F)F.[Cl-].[Ir+3] [Compound 3d, [(Cp*)Ir((R)-2)Cl]PF6] | 64.0 | 6.57 | (0.974) | – | 5.95 | (1.96) | 2 | – | –

From publication PMC11044151, “Development of Half-Sandwich Ru, Os, Rh, and Ir Complexes Bearing the Pyridine-2-ylmethanimine Bidentate Ligand Derived from 7-Chloroquinazolin-4(3H)-one with Enhanced Antiproliferative Activity” (ACS Omega, 2024)
